Data taken from US7868204B2, “Inhibitors of histone deacetylase” (MethylGene Inc., priority 2001, dated 2011).
Like-named read-outs stand apart in the source and are kept apart here.

What was measured:
[1] = tested on: acetylated histone H-4 in T24 human bladder cancer cells; experiment: Histone H4 acetylation in whole cells by immunoblots; format: cell-based; conditions: 16 h
Procedure, shortened: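 Acetylated histone H4 was quantified by densitometry of ECL-developed immunoblots, probed with a polyclonal antibody, of […] total histone from T24 cultures exposed 16 h to HDAC inhibitors.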

[2] = target: T1, cloned recombinant human HDAC-1 (Homo sapiens, UniProt Q13547); experiment: Human HDAC-1 enzyme inhibition, Assay 1 ([3H]-acetylated histone substrate, scintillation counting); format: biochemical
T1 construct: made in house; host or cells: Baculovirus insect cell expression system
T1 sequence (Q13547 whole entry): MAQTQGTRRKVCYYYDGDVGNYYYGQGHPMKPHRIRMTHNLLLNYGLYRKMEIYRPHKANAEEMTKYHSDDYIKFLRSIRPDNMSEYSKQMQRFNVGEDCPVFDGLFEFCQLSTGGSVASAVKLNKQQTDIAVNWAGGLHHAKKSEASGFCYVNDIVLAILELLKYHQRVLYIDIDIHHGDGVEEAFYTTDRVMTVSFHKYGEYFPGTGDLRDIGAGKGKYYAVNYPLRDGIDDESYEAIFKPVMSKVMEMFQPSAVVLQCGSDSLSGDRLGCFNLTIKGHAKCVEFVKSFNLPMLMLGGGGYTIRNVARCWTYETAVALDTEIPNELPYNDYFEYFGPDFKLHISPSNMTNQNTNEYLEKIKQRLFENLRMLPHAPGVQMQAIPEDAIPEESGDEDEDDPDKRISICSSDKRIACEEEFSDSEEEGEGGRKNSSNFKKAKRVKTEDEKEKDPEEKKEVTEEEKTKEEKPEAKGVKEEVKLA
Procedure, shortened: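 Activity read as [3H]-acetic acid liberated from labeled substrate, ethyl acetate-extracted and scintillation-counted. Compounds preincubated 30 min at 4° C. with baculovirus-expressed, purified human HDAC-1. Dose-response curves give IC50 as concentration producing fifty percent of maximal inhibition.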

[3] = tested on: HCT116 cells; experiment: MTT assay; format: cell-based; conditions: Homo sapiens, HCT116 cells, 72 hours
Procedure, shortened: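 Read-out: MTT (0.5 mg/ml final, 4 h) after solubilization in 50% DMF/20% SDS, pH 4.7, with OD translated into cell number via the line's growth curve. Compound treatment lasted 72 h at 37 °C in 5% CO2, starting a day after plating.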

[4] = T-24, Table 5F, read-out: H4 Ac (T24) EC50
[5] = Table 5F, read-out: Human HDAC-1 IC50
[6] = T-24, Table 5c, read-out: H4Ac (T24) EC50
[7] = Table 5c, read-out: Human HDAC-1 IC50
[8] = T-24, Table 5b, read-out: H4Ac (T24) EC50
[9] = Table 5b, read-out: Human HDAC-1 IC50
[10] = T-24, Table 5d, read-out: H4Ac(T24) EC50
[11] = Table 5d, read-out: HDAC-1 IC50
[12] = T-24, Table 5a, read-out: H4Ac (T24) EC50
[13] = Table 5a, read-out: Human HDAC-1 IC50
[14] = T-24, Table 5E, read-out: H4 Ac (T24) EC50
[15] = Table 5E, read-out: Human HDAC-1 IC50

EC50 [1, 4] | IC50 [2, 5] | IC50 ([3]; HCT-116, 72 h, Table 5F) | other results | Structure (SMILES)
15000 nM | 2000 nM | 600 nM | – | Nc1ccccc1NC(=O)c1ccc(CSc2nccc(C(F)(F)F)n2)cc1 [Cpd 379, N-(2-Amino-phenyl)-4-(4-trifluoromethyl-pyrimidin-2-ylsulfanylmethyl)-benzamide]
5000 nM | < 50 nM | 900 nM | – | Nc1ccccc1NC(=O)c1ccc(CNc2ccc(OC(F)(F)F)cc2)cc1 [Cpd 422, N-(2-Amino-phenyl)-4-[(4-trifluoromethoxy-phenylamino)-methyl]-benzamide]
2000 nM | 3000 nM | 900 nM | – | Cc1cc(Cl)nc(NCc2ccc(C(=O)Nc3ccccc3N)cc2)n1 [Cpd 418, N-(2-Amino-phenyl)-4-[(4-chloro-6-methyl-pyrimidin-2-ylamino)-methyl]-benzamide]
– | – | – | EC50 [1, 6]: 5000 nM; IC50 [2, 7]: 3000 nM; IC50 ([3]; HCT-116, 72 h, Table 5c): 900 nM | Nc1ccccc1NC(=O)/C=C/c1ccc(NCc2cccc(C(F)(F)F)c2)nc1 [Cpd 101, N-(2-aminophenyl)-3-[6-(3-trifluoromethyl-benzylamino)-pyridin-3-yl]-acrylamide]
– | – | – | EC50 [1, 6]: 3000 nM; IC50 [2, 7]: 3000 nM; IC50 ([3]; HCT-116, 72 h, Table 5c): 8000 nM | Nc1ccccc1NC(=O)/C=C/c1ccc(NC(=O)OCc2cccnc2)cc1 [Cpd 55b]
1000 nM | 2000 nM | 800 nM | – | CCn1c(=O)n(Cc2ccc(C(=O)Nc3ccccc3N)cc2)c(=O)c2sccc21 [Cpd 255]
3000 nM | 2000 nM | 500 nM | – | COc1cc2ncn(Cc3ccc(C(=O)Nc4ccccc4N)cc3)c(=O)c2cc1OC [Cpd 338, N-(2-Amino-phenyl)-4-(6,7-dimethoxy-4-oxo-4H-quinazolin-3-ylmethyl)-benzamide]
3000 nM | 4000 nM | 1000 nM | – | Nc1ccccc1NC(=O)c1ccc(Cn2c(=O)c3ccccc3n(CCN3CCOCC3)c2=O)cc1 [Cpd 341]
– | – | – | EC50 [1, 8]: 2000 nM; IC50 [2, 9]: 500 nM; IC50 ([3]; HCT-116, 72 h, Table 5b): 400 nM | CN(Cc1ccc(C(=O)Nc2ccccc2N)cc1)c1nc(N)nc(NC2Cc3ccccc3C2)n1 [Cpd 216]
5000 nM | 4000 nM | 1000 nM | – | Nc1ccccc1NC(=O)c1ccc(CC2Oc3ccccc3NC2=O)cc1 (stereo not drawn) [compound 270, N-(2-Amino-phenyl)-4-(3-oxo-3,4-dihydro-2H-benzo[1,4]oxazin-2-ylmethyl)-benzamide]
1000 nM | 3000 nM | 2000 nM | – | Nc1ccccc1NC(=O)c1ccc(-c2ccc(CNCc3ccccn3)s2)cc1 [Cpd 466]
– | – | – | EC50 [1, 10]: > 25000 nM; IC50 [2, 11]: 11000 nM; IC50 ([3]; HCT-116, Table 5d): 2000 nM | COc1cc(/C=C\c2ccc(/C=C/C(=O)Nc3ccccc3N)cc2)cc(OC)c1OC [Cpd 537, N-(2-Amino-phenyl)-3-{4-[2-(3,4,5-trimethoxy-phenyl)-vinyl]-phenyl}-acrylamide]
2000 nM | 8000 nM | 300 nM | – | Nc1ccccc1NC(=O)c1ccc(CNc2ccc3c(c2)OCCO3)cc1 [Cpd 400, N-(2-Amino-phenyl)-4-[(2,3-dihydro-benzo[1,4]dioxin-6-ylamino)-methyl]-benzamide]
> 5000 nM | 900 nM | 100 nM | – | Cc1cc(C)c(NCc2ccc(C(=O)Nc3ccccc3N)cc2)c(C)c1 [Cpd 410, N-(2-Amino-phenyl)-4-[(2,4,6-trimethyl-phenylamino)-methyl]-benzamide]
– | – | – | EC50 [1, 12]: 1000 nM; IC50 [2, 13]: 500 nM; IC50 ([3]; HCT-116, 72 h, Table 5a): 300 nM | Nc1nc(NCCc2ccccc2)nc(NCc2ccc(C(=O)Nc3ccccc3N)cc2)n1 [Cpd 20, 4-[(4-Amino-6-phenethylamino-[1,3,5]triazin-2-ylamino)-methyl]-N-(2-amino-phenyl)-benzamide]
2000 nM | 2000 nM | 500 nM | – | Cc1ccc(C#N)c(OCc2ccc(C(=O)Nc3ccccc3N)cc2)n1 [Cpd 577, N-(2-Amino-phenyl)-4-(3-cyano-6-methyl-pyridin-2-yloxymethyl)-benzamide]

EC50 [1, 4] | IC50 [2, 5] | IC50 ([3]; HCT-116, 72 h, Table 5F) | other results | Structure (SMILES)
25000 nM | 4000 nM | 2000 nM | – | COc1cccc(SCc2ccc(C(=O)Nc3ccccc3N)cc2)c1 [Cpd 394]
1000 nM | 2000 nM | 200 nM | – | COc1ccc(N(Cc2ccc(C(=O)Nc3ccccc3N)cc2)C(=O)Nc2ccc(Cl)cc2)cc1OC [Cpd 372, N-(2-Amino-phenyl)-4-[3-(4-chloro-phenyl)-1-(3,4-dimethoxy-phenyl)-ureidomethyl]-benzamide]
2000 nM | 3000 nM | 300 nM | – | Nc1ccccc1NC(=O)c1ccc(CNc2ccc3oc(SCc4cccnc4)nc3c2)cc1 [Cpd 452, N-(2-Amino-phenyl)-4-{[2-(pyridin-3-ylmethylsulfanyl)-benzooxazol-5-ylamino]-methyl}-benzamide]
1000 nM | 1000 nM | 600 nM | – | COc1cc(NCc2ccc(-c3ccc(C(=O)Nc4ccccc4N)cc3)s2)cc(OC)c1OC [Cpd 323]
– | – | – | EC50 [1, 10]: 10000 nM; IC50 [2, 11]: 5000 nM; IC50 ([3]; HCT-116, Table 5d): 2000 nM | Nc1ccccc1NC(=O)/C=C/c1ccc(NCCNc2ncccn2)nc1 [Cpd 521, N-(2-Amino-phenyl)-3-{6-[2-(pyrimidin-2-ylamino)-ethylamino]-pyridin-3-yl}-acrylamide]
– | – | – | EC50 [1, 14]: 5000 nM; IC50 [2, 15]: 4000 nM; IC50 ([3]; HCT-116, 72 h, Table 5E): 400 nM | Nc1ccccc1NC(=O)c1ccc(NCCc2ccc(F)cc2)nc1 [Cpd 174]
– | – | – | EC50 [1, 14]: 5000 nM; IC50 [2, 15]: 1000 nM; IC50 ([3]; HCT-116, 72 h, Table 5E): 5000 nM | Nc1ccccc1NC(=O)c1ccc(CN2C(=O)c3ccccc3C2=O)cc1 [Cpd 149, N-(2-Amino-phenyl)-4-(1,3-dioxo-1,3-dihydro-isoindol-2-ylmethyl)-benzamide]
1000 nM | 900 nM | 300 nM | – | COc1ccc2nc(NCc3ccc(C(=O)Nc4ccccc4N)cc3)sc2c1 [Cpd 233]
– | – | – | EC50 [1, 12]: 1000 nM; IC50 [2, 13]: 2000 nM; IC50 ([3]; HCT-116, 72 h, Table 5a): 700 nM | COc1ccccc1CCNc1nc(N)nc(NCc2ccc(C(=O)Nc3ccccc3N)cc2)n1 [Cpd 23, 4-({4-Amino-6-[2-(2-methoxy-phenyl)-ethylamino]-[1,3,5]triazin-2-ylamino}-methyl)-N-(2-amino-phenyl)-benzamide]
3000 nM | 2000 nM | 2000 nM | – | Nc1ccccc1NC(=O)c1ccc(NCc2ccc(F)cc2)cc1 [Cpd 413, N-(2-Amino-phenyl)-4-(4-fluoro-benzylamino)-benzamide]
5000 nM | 400 nM | 1000 nM | – | Nc1ccccc1NC(=O)c1ccc(CNc2nc(Cl)nc3[nH]cnc23)cc1 [Cpd 332, N-(2-Amino-phenyl)-4-[(2-chloro-9H-purin-6-ylamino)-methyl]-benzamide]
– | – | – | EC50 [1, 12]: 2000 nM; IC50 [2, 13]: 900 nM; IC50 ([3]; HCT-116, 72 h, Table 5a): 1000 nM | CC1(C)C2CC[C@@](C)(C2)[C@H]1Nc1nc(N)nc(NCc2ccc(C(=O)Nc3ccccc3N)cc2)n1 [Cpd 17]
1000 nM | 3000 nM | 600 nM | – | Cc1nc2ccccc2c(=O)n1Cc1ccc(C(=O)Nc2ccccc2N)cc1 [Cpd 337, N-(2-Amino-phenyl)-4-(2-methyl-4-oxo-4H-quinazolin-3-ylmethyl)-benzamide]
– | – | – | EC50 [1, 14]: 3000 nM; IC50 [2, 15]: 4000 nM; IC50 ([3]; HCT-116, 72 h, Table 5E): 500 nM | Nc1ccccc1NC(=O)c1ccc(NCc2ccc(F)cc2)nc1 [Cpd 175]
– | – | – | EC50 [1, 8]: 3000 nM; IC50 [2, 9]: 2000 nM; IC50 ([3]; HCT-116, 72 h, Table 5b): 700 nM | Nc1nc(NCCCc2ccccc2)nc(NCc2ccc(C(=O)Nc3ccccc3N)cc2)n1 [Cpd 470]
